Reference: article PMC1082716, “Blockade of chemokine-induced signalling inhibits CCR5-dependent HIV infection in vitro without blocking gp120/CCR5 interaction” (Retrovirology, 2005)
“Also recorded” adds a separate entry of the source.

How the values were obtained:
[1] = tested on: chemokine receptor internalisation; details: ref [27]; cited from earlier work
Source text: Since BSCIs, such as Peptide 3, ...

[2] = tested on: RANTES-induced chemotaxis; assay: RANTES-/MIP1α-induced chemotaxis (ChemoTx transwell); format: cell-based; details: RANTES per text, 25 ng/ml MIP1α per Fig 2f legend; 5 × 10^4 cells per well; 2 h, 37°C; MTT; triplicate
Method: (§1) Figure 2 Effect of Peptide 3 on gp120:V3 loop peptide binding to cells. (a) The binding of 100 μM N-terminal biotinylated gp120:V3(IIIb) to THP-1 cells was measured in the presence of various concentrations of peptide 3. In each case, the non-specific binding (in the presence of 10 mM unlabelled gp120:V3 loop peptide) has been subtracted. (b) Chemotaxis in response to 100 ng/ml SDF1α was measured in the presence of various concentrations of peptide 3. […] (e) As for (a) except that the effect of Peptide 3 on the binding of gp120:V3(BaL) to THP-1 cells was determined. (f) As for (b) except that the effect of Peptide 3 on chemotaxis induced by 25 ng/ml MIP1α was determined. All binding reactions were performed with 10^6 cells in 100 μl of binding medium at 4°C. Chemotaxis assays were performed with 5 × 10^4 cells per well. Values are mean ± SEM of triplicate determinations.
Chemotaxis experiments were performed essentially as previously described, using the ChemoTx disposable 96-well transwell migration plates, with PVP-free membrane (6 μm pore size). […] The number of cells which had migrated to the lower compartment was determined using the vital dye MTT and interpolation of a standard curve. Each condition was determined in triplicate, and the number of cells migrating in the absence of chemoattractant was subtracted to determine the chemokine-dependent chemotaxis which was reported.

HIV (IIIb) = HIV (IIIb) replication in Jurkat T-cells, supernatant reverse transcriptase activity; format: cell-based; details: HIV-1 IIIb 10^6 TCID50; Peptide 3 100 μM; two weeks; six separate experiments
Method: HIV infection of Jurkat T-cells using the laboratory-adapted T-tropic isolate IIIb was monitored using two different assays. Firstly, Jurkat T-cells in 96-well plates were pre-treated with either Peptide 3, vehicle (as a negative control) or SDF1α (as a positive control) for 4 hours, then exposed to HIV virus (10^6 TCID50) and pulsed at 2–3 day intervals with Peptide 3, SDF1α or medium alone as appropriate. After two weeks in culture, the extent of viral infection was assayed by measuring the reverse transcriptase activity in the supernatant, as a measure of viral replication in the culture In six separate experiments, Peptide 3 (100 μM) had no effect on virus replication following HIV exposure (Fig 3a), while SDF1α inhibited reverse transcriptase activity by an average of 75%. No effect was seen on cell viability under any of the treatment conditions.
HIV-1 stocks were prepared in the following manner. HIV-1 IIIb (provided by the MRC AIDS Reagent Programme) was used to infect Jurkat T cells and the progression of infection was monitored using the reverse transcriptase assay for 10–14 days. […] Stocks of HIV-1 MN strain were prepared in a similar manner, except that H9 T cells were used and the progression of infection was monitored by immunofluoresence (because of the low RT activity) in this strain. […]

[3] = tested on: SDF-1α induced chemotaxis; assay: SDF-1α induced chemotaxis (ChemoTx transwell); format: cell-based; details: 100 ng/ml SDF1α; various concentrations of inhibitor in both compartments; 5 × 10^4 cells per well; 2 h, 37°C; MTT; triplicate
Method: as §1, with “In each case, the non-specific binding (in the presence of 10 mM unlabelled gp120:V3 loop peptide) has been subtracted.” left out
Chemotaxis experiments were performed essentially as previously described, using the ChemoTx disposable 96-well transwell migration plates, with PVP-free membrane (6 μm pore size). Chemoattractant (lower compartment) and cells upper compartment) were suspended in Gey's Balanced salt solution + 1 mg/ml BSA. […] Migration was allowed to proceed for 2 hours at 37°C. […] Each condition was determined in triplicate, and the number of cells migrating in the absence of chemoattractant was subtracted to determine the chemokine-dependent chemotaxis which was reported.

chemokine receptors = details: ref [27]; cited from earlier work

Sequence: EICADPKQKWVQ [Peptide 3]
- Effect on chemokine receptor internalisation induced by ligand binding [1]: do not block
- Effect on RANTES-induced chemotaxis [2]: powerfully inhibited; also recorded: profoundly blocked
- Effect on virus replication following HIV exposure (reverse transcriptase activity) (HIV (IIIb)): no effect
- Effect on SDF-1α induced chemotaxis [3]: powerfully inhibited; also recorded: efficiently blocks
- Effect on binding of chemokine ligands to the receptors (chemokine receptors): do not block
